Assay results taken from patent US20190248834A1, “ENDOMORPHIN-2, TETRAPEPTIDE DERIVATIVES THEREOF, AND USES THEREOF” (priority 2016, published 2019).
Non-standard residues stand in square brackets, D forms with d. pGlu = O=C1CC[C@@H](C(=O)O)N1

Columns and labels:
Assay type in all cases: in vivo, human
severe frontal headaches = assay: Example 47: analgesic effect on severe headaches, topical
Text: A subject had severe frontal headaches occurring every 5-10 days.

[1] = tested on: severe nauseating headache; assay: Example 60: analgesic effect on headache due to inhalation of exhaust fumes, topical; settings: 0.5% (w/v) in WEP442, topical
Text: A construction worker, suffered a severe nauseating headache on a day when, for about an hour, they were exposed to exhaust fumes from a gasoline motor driven dust blower early in the day. The headache persisted all day and into the evening.

bruised finger = assay: Example 37: analgesic effect on bruised finger, topical; settings: 1% (w/v) in WEP442, topical
Text: A subject, severely bruised their left 5th finger while trying to close a basement window in their house. The pain was intense, and associated with subcutaneous hemorrhage.

psoriatic knee pain = assay: Example 66: analgesic effect on psoriatic knee pain, topical; settings: 0.5% (w/v) in WEP442, topical
Text: A person with plaque psoriasis of the scalp, elbows and knees for about 10 years had pain in their knees for the past 4-5 years. The knee pain had gradually worsened. […] After hiking for several hours, the knee pain sometimes re-occurred, but it was immediately relieved by topical application of the above solution composition.

[2] = tested on: ordinary type of headache; assay: Example 11: analgesic effect on headache, topical; settings: 1% (w/v) in EP73, topical
Text: A subject, developed an ordinary type of headache in the early afternoon. Such headaches usually would persist for several hours, being relieved incompletely by treatment with oral drugs, such as ibuprofen and/or acetaminophen. In this instance, they topically applied an anhydrous composition containing 1% (w/v) N-Ac-Tyr-Pro-Phe-Phe-NH2(SEQ ID NO: 23) in EP73 to the frontal and temporal areas.

[3] = tested on: jaw pain after tooth extraction; assay: Example 29: analgesic effect on dental extraction pain, topical
Method: A subject had substantial pain in the right maxillary jaw that started about 2 hours after extraction of a right maxillary tooth. […] Only negligible discomfort, perceived by touching the extraction site with the tongue, was detectable thereafter.

knee pain = assay: Example 32: analgesic effect on knee pain after housework, topical; settings: 1% (w/v) in WEP442, topical
Text: A subject with discomforting knee pain in the evening after cleaning their own house for several hours topically applied a composition containing 1% (w/v) of N-Ac-Tyr-Pro-Phe-Phe-NH2 (SEQ ID NO: 23) in WEP442.

pain at injection sites = assay: Example 39: analgesic effect on pain at site of subcutaneous injection of hyaluronic acid, topical; settings: 1% (w/v) in WEP442, topical
Text: A subject, experienced substantial pain in the zygomatic-facial areas, sites injected subcutaneously with a hyaluronic acid product (Restylane) six hours earlier for the cosmetic purpose of plumping up the skin.

[4] = tested on: pain in the muscles of the neck; assay: Example 57: analgesic effect on stress pain in muscles of the neck, topical; settings: 0.6% (w/v) in WEP442, topical
Method: A farmer suffered substantial pain in the muscles of their neck the day after ploughing a field for several hours. During that time, they had almost constantly strained their neck muscles looking backward to monitor the performance of the plough behind. The pain was such that it disabled them from turning their head even slightly. […] Reapplication of the solution at that time again relieved the pain for another 4 hours. With repeated applications, they were able to perform usual farm maintenance work for the entire day. After a night's rest, the pain subsided spontaneously.

right shoulder pain = assay: Example 77: analgesic effect on pain from shoulder strain, topical; settings: 0.5% (w/v) in WEP442, topical
Method: A subject, presented with right shoulder pain for a duration of 5 days, which developed after carrying a very heavy grocery bag for several city blocks. The pain was increased by their attempts to lift their arm to an elevated position, and further increased from rotational arm movements. […] Such relief lasted for about 6 hours, at which time re-application provided the same relief.

pharyngitis = assay: Example 64: analgesic effect on pharyngitis, oral
Method: A subject developed a respiratory tract infection, symptoms of which included coughing and pharyngitis. Swallowing of saliva was very painful for the subject. […] A solution containing 0.5% (w/v) of N-Pg-Tyr-Pro-Phe-Phe-NH2 (SEQ ID NO: 44) in a mixture of propylene glycol (10 parts by volume) and glycerol (90 parts by volume) was prepared. One teaspoonful of the solution was held in the posterior part of the mouth for about one minute and then swallowed. […] Such relief of painful swallowing lasted for about 3 hours. Repeated administrations provided the same results.

[5] = tested on: severe osteoarthritis of both knees; assay: Example 17: analgesic effect on osteoarthritic knees, sublingual powder; settings: powder 50 mg under the tongue
Method: A subject had severe osteoarthritis of both knees with pain, inflammation and edema for four years. The subject underwent prior therapy, including intra-articular injections of corticosteroids and hyaluronic acid as well as celecoxib (Celebrex), administered orally (200 mg) twice daily. Such therapy provided only mild transitory relief of knee pain and edema, and edema of the lower legs.
The subject administered N-Pg-Tyr-Pro-Phe-Phe-NH2 (SEQ ID NO: 44) powder (50 mg) under the tongue (sublingually), which dissolved in saliva and absorbed slowly for about 30 minutes. […] The analgesic effect lasted for about 2 hours. The analgesic effect was judged to be about 4+ by clinical evaluation.
Under the same conditions, N-Pa-Tyr-Pro-Phe-Phe-NH2 (SEQ ID NO: 64) powder provided an analgesic effect of about 3+ as judged by clinical evaluation. Also under the same conditions, N-Ac-Tyr-Pro-Phe-Phe-NH2 (SEQ ID NO: 23) powder provided an analgesic effect of about 3+ as judged by clinical evaluation. Repeated application of the tetrapeptide derivatives provided 4+ efficacy as judged by clinical evaluation.

[6] = tested on: post-operative knee soreness; assay: Example 70: analgesic effect on post-operative tenderness and soreness of knee, topical; settings: 0.6% (w/v) in WEP442, topical
Text: A person underwent surgical repair of a bulging meniscus of the right knee, after which there was substantial tenderness and soreness, particularly so upon their walking, which they were advised to do a few hours daily during the recovery period. Skin glue had been used for wound closure, which allowed for topical applications of a composition containing 0.6% (w/v) of N-Pg-Tyr-Pro-Phe-Phe-NH2 (SEQ ID NO: 44) in WEP442 to the entire knee including 5 surgical wound sites. […] Repeated topical applications provided freedom of movement throughout the day with negligible discomfort.

[7] = 0.5% (w/v) in propylene glycol/glycerol, oral

Molecule: CC(=O)N[C@@H](Cc1ccc(O)cc1)C(=O)N1CCC[C@H]1C(=O)N[C@@H](Cc1ccccc1)C(=O)N[C@@H](Cc1ccccc1)C(N)=O [N-Ac-Tyr-Pro-Phe-Phe-NH2]
- time to pain relief (severe frontal headaches; 1% (w/v) in WEP442, topical): 3 to 4 min
- pain relief (severe frontal headaches; 1% (w/v) in WEP442, topical at onset): completely interrupted all pain
- pain relief [1]: completely relieved the headache
- time to pain relief [1]: ≤ 2 min
- pain relief (bruised finger): complete relief of pain
- time to pain relief (bruised finger): ≤ 15 s
- duration of pain relief (psoriatic knee pain): about 6 hours
- pain relief (psoriatic knee pain): relieved their knee pain
- duration of headache alleviation [2]: 18 h
- pain relief [2]: headache pain disappeared completely
- time to pain relief [2]: Within minutes
- time to pain relief ([3]; 1% (w/v) in WEP442, topical): ≤ 1 min
- pain relief ([3]; 1% (w/v) in WEP442, topical to facial maxillary area): complete relief of pain
- duration of pain relief (knee pain): 5 to 7 h
- pain relief (knee pain): Total relief of pain
- time to pain relief (knee pain): ≤ 1 min
- pain relief (pain at injection sites): completely relieved the pain
- recurrence (pain at injection sites): did not return
- time to pain relief (pain at injection sites): ≤ 1 min

Molecule: N-Pg-Tyr-Pro-Phe-Phe-NH2 ([pGlu]YPFF-NH2; SMILES NC(=O)[C@H](Cc1ccccc1)NC(=O)[C@H](Cc1ccccc1)NC(=O)[C@@H]1CCCN1C(=O)[C@H](Cc1ccc(O)cc1)NC(=O)[C@@H]1CCC(=O)N1)
- duration of pain relief [4]: about 4 hours
- pain relief [4]: almost completely relieved
- duration of pain relief (right shoulder pain): about 6 hours
- pain relief (right shoulder pain): rapid, complete relief of pain
- relief of painful swallowing (pharyngitis; 0.5% (w/v) in propylene glycol/glycerol 10:90, one teaspoonful held in mouth and swallowed): swallowing of liquids and semi-solid food could be done without pharyngeal pain
- duration of relief (pharyngitis; [7]): about 3 hours
- time to relief (pharyngitis; [7]): ≤ 10 min
- analgesic effect by clinical evaluation [5]: 4+ (4+ (90-100%): complete relief or eradication of pain for more than 4 hours)
- duration of analgesic effect [5]: about 2 hours
- pain relief [5]: the pain disappeared
- time to pain relief [5]: ≤ 20 min
- duration of pain relief [6]: 2 to 3 h
- pain relief [6]: rapid, almost complete, relief of pain sensations
